Entries after “also recorded” stand apart in the source; their conditions may differ.
Columns and labels:
[1] = physchem; assay type: physicochemical; details: buffer
Method: Curiously, 1 appears the most hydrolytically labile of this class of structures, with a measured t1/2<4 hr at pH 5.5, and […] at pH 7. […] Moreover, from estimates of the surface area per seedling, the concentration of 1 around the radicle of one-week-old maize seedlings should be between […] and 10 mM, depending on whether a 10 μ or a 100 μ volume element is used to define the surface hydration. […] This inhibitory zone readily explains the observed difficulty transforming this organ with the bacterium.

[2] = target: vir gene expression; assay: vir gene expression inhibition, β-galactosidase (lacZ under vir promoter); assay type: cell-based, A. tumefaciens
Method: Vir Induction Assay. A. tumefaciens strains were grown overnight at 27° C. to an OD of 0.3-0.6 in LB medium supplemented with appropriate antibiotics. Cells were then pelleted by centrifugation and resuspended to an OD of 0.1 per ml in sterilized induction medium (ABIM, pH 5.5) supplemented with either 1% glucose or 1% glycerol. The various inducer and Inhibitor compounds tested were dissolved in a minimal amount of DMSO in water as mM stocks, and diluted with ABIM to the desired concentration (final DMSO concentration was no greater than 0.1%). The bacteria were incubated with at 28° C. for 8-16 hr and subsequently assayed for β-galactosidase activity by the method of Miller (1986). IC50 values for the Inhibitors evaluated were estimated from such dose response plots. Each assay value reported is the mean of three replicates; error bar indicates one standard deviation from the mean. Data are representative of three similar independent studies.
The capacity of 1 to inhibit vir gene expression was tested by monitoring β-galactosidase activity in an A. tumefaciens strain carrying wild-type vir induction genes and a lacZ gene under the control of a vir promoter (Hess et al., 1991). […] A more precise test for specificity was available via the utilization of a plasmid containing a virA gene, the putative AS receptor, which contitutively expressed the vir genes in the absence of AS. […] Therefore, the inhibition by 1 occurs upstrean, of VirA activation.

[3] = tested on: occ regulon; assay: occ regulon induction (specificity control); assay type: cell-based, A. tumefaciens; details: same plasmid; data not shown
[4] = tested on: A. tumefaciens strain A348/pAC2 and AB140/pAC2; assay: kanamycin resistant growth with pAC2 (virB promoter/nptII); assay type: cell-based; details: for kanamycin resistant growth of AB140 compared with wild-type (inducer sensitivity): liquid medium, AB140/pAC2 vs A348/pAC2 (FIG. 9); for survival on induction plates plus kanamycin: A348/pAC2, 40 μg/ml kanamycin
Method: Mutant Selection. […] Phenolic hypersensitive mutants were selected as follows. Individual colonies of A348/pAC2 were grown overnight in LB broth plus spectinomycin, and the progeny from each colony kept separate to ensure that each mutation was an individual event, not part of a clonal population. The bacteria were subsequently washed in ABIM medium, resuspended to an OD600 of approximately 0.1 and induced overnight in ABIM media plus 100 μM AS. The next day the cells had grown to an approximate OD600 of 1.0 and 2×10^5 to 2×10^6 bacteria were plated onto plates confining ABIM medium containing 10 μM AS and 40 μg/ml kanamycin. Colonies that grew on this selection medium were subsequently assayed for growth on plates containing kanamycin but no phenolic. Colonies that grew under these conditions are constitutive for kanamycin resistance and were not characterized further, while colonies that couldn't survive in this screen were characterized further.
The kanamycin resistance test of selected colonies in response to different doses of phenol was done in the following manner: after one night of induction in ABIM over a range of inducer concentrations, as described above, the bacteria were washed and subcultured into ABIM at a starting OD600 of approximately 0.1. The ABIM included phenolics at a range of concentrations between 0.1-1000 μM. At each concentration of inducer three cultures have kanamycin at a concentration of 20 μg/mL, while one culture has no kanamycin. After overnight culture the OD600 is determined and kanamycin resistant growth as a percentage of control is determined using the following calculation: [formula]

[5] = tested on: VirA expression by native PvirA; details: with AS induction; cited from earlier work
[6] = tested on: vir gene expression in hypersensitive mutants (AB140, AB147); assay: vir induction assay, β-galactosidase reporter, phenol hypersensitive mutants; assay type: cell-based, A. tumefaciens; details: for vir inducing activity / hypersensitivity in mutants: hypersensitive mutants, e.g. AB140, versus wild-type
Method: (§1) vir Induction Assay. A. tumefaciens strains were grown overnight at 27° C. to an optical density of about 0.3-0.6 at 600 nm (OD600) in LB medium supplemented win appropriate antibiotics. Cells were then pelleted by centrifugation and resuspended to an OD600 of 0 1 per ml in sterilized induction medium (ABIM. pH 5.5) supplemented with either 1% glucose or 1% glycerol with or without 0.1% arabinose (w/v). The verious phenolic compounds tested were dissolved in a minimal amount of DMSO in water as mM stocks, and diluted with ABIM to the desired concentration (final DMSO concentration was no greater than 0.1%). The bacteria were incubated with at 28° C. for 8-16 hours and subsequently assayed for β-galactosidase activity by the method of Miller, 1972. ED50 values for the inducers evaluated were estimated from such dose response plots. Each assay value reported is the mean of three replicates; error bar indicates one standard deviation from the mean. Data are representative of three similar independent experiments.
To ensure that the mutants hypersensitive to AS were a result of a change in the vir gene induction pathway rather than a mutation in the reporter plasmid pAC2, other methods to analyze vir gene induction and the virulence response were investigated. First, all nine mutants were transformed with pSW209 carrying a virB::lacZ reporter construct. The β-galactosidase activities of all strains were hypersensitive in an AS dose-response study. The observed changes are not due to some artifact of the reporter plasmids as the expression of VirB10, one of the proteins of the virB operon on its Ti plasmid, in cells of AB140 was detectable after induction with 0.3 μM AS. Wild-type cells required 1 μM AS to produce detectable VirB10. Thus, the mutants are hypersensitive to AS when assaying either the virB^P/nptII reporter, the virB::lacZ reporter, or directly assaying expression of VirB10 from the native viral promoter on the Ti plasmid.

[7] = tested on: leaf explants of Nicotiana tabacum cv Havana 425; assay: tobacco leaf tumor (virulence) assay
Method: Virulence Assays The capacity of various strains of A. tumefaciens to induce tumors on leaf explants of Nicotiana tabacum cv Havana 425 was tested as described previously. Banta et al., 1994.
In this assay, bacteria and leaf explants are co-cultivated for two days at varying levels of AS and then transferred to antibiotic containing medium that stops bacterial growth but allows plant tumor growth. Banta et al., 1994. In the case of wild-type strain A348, some tumor formation is observed on the leaf explants co-cultivated in the absence of AS in the co-cultivation, as expected because of xenognostic phenols released from the wounded cells (FIG. 10). […] Importantly, the maximum number of tumors formed by both the wild-type strain and AB140 was approximately the same, consistent with the observation that AB140's hypersensitivity is not a result of simple overexpression of the vir genes.

[8] = tested on: VirB10 expression; assay: VirB10 immunoblot; assay type: cell-based, A. tumefaciens
Method: Immunoblot. Cultures of different strains were induced overnight in ABIM containing 1% glycerol and 0.1% arabinose and varying phenolic concentrations. Samples from each culture, containing an equivalent OD600, were denatured by boiling in sample buffer for 3-10 minutes, and 10 μL from each sample was loaded onto 10% acrylamide gels and separated via SDSpolyacrylamide gel electrophoresis (PAGE). Proteins were transferred from the acrylamide gel to nitrocellulose purchased from Schleicher and Schell (Keene, N. H.) by electrotransfer. VirB 10 expression was examined using immunoblot procedures and antibodies described in Beaupre et al., 1997.

[9] = tested on: vir gene expression in wild-type strain A348; assay: vir induction assay, β-galactosidase reporter, wild-type strain; assay type: cell-based, A. tumefaciens; details: wild-type A348/pSW209
Method: as §1

Q: For `COc1ccc2c(c1)OC(O)C(=O)N2OC` (centres unmarked) [compound 1], which half-life ([1]; pH 5.5) is on record?
A: < 240 min

Q: What about the half-life ([1]; pH 7) of the same compound?
A: ~10 min

Q: And the “actual IC50” value ([2]; based on decomposition rates during the 8 hr assay period)?
A: nanomolar range

Q: What about the “inhibition of vir gene expression (β-galactosidase activity)” value ([2]; expression induced by 100 uM acetosyringone, wild-type vir induction genes) of the same compound?
A: strongly inhibits

Q: And the “effect on constitutively activated VirA strain (FIG. 2)” value ([2]; virA G665D expressing vir genes in the absence of AS)?
A: functions independently

Q: What about the “effect on induction of the occ regulon” value [3] of the same compound?
A: unaffected

Q: With `COc1cc(C(C)=O)ccc1O` [AV, acetovallinone] as the compound, how does the “kanamycin resistant growth of AB140 compared with wild-type (inducer sensitivity)” value [4] read?
A: not hypersensitive

Q: For `COc1cc(C(C)=O)cc(OC)c1O` [AS, Acetosyringone], which “induction of VirA expression by native PvirA” value [5] is on record?
A: ~8 fold

Q: And the “sensitivity to AS compared with wild-type strain A348” value ([6]; AB140, 0.1% arabinose present in induction medium)?
A: increased

Q: What about the “AS concentration for response compared with wild-type” value ([6]; AB147 class, absence of arabinose) of the same compound?
A: half-log lower concentration

Q: What about the “vir inducing activity / hypersensitivity in mutants” value [6] of the same compound?
A: hypersensitive

Q: And the “AS concentration for maximal capacity to induce tumors, relative to wild-type” value ([7]; hypersensitive mutant AB140 (FIG. 10))?
A: log order lower concentration

Q: And the “number of tumors formed per infected leaf explant” value ([7]; wild-type strain A348, increasing phenol in co-cultivation medium (FIG. 10))?
A: significantly increased

Q: And the “AS concentration giving detectable VirB10” value ([8]; cells of AB140)?
A: 0.3 µM

Q: What about the “AS concentration required to produce detectable VirB10” value ([8]; wild-type cells) of the same compound?
A: 1 µM

Q: What about the “survival on induction plates plus kanamycin” value ([4]; 30 μM AS) of the same compound?
A: killed

Q: What about the “survival on induction plates plus kanamycin” value ([4]; 100 μM AS) of the same compound?
A: survive

Q: And the “kanamycin resistant growth of AB140 compared with wild-type (inducer sensitivity)” value [4]?
A: one-half log lower concentration

Q: Which “activity of decomposition product” value ([2]; under the assay conditions) does the source give for `COc1ccc2[nH]c(=O)oc2c1` [6-methoxy-2H-benzoxazolin-2(3H)-one] here?
A: inactive

Q: What does the source list for `COc1cc2c(c(OC)c1O)CCC2=O` [D-indanone, 5-hydroxy-4,6-dimethoxyindanone]?
A: vir inducing activity / hypersensitivity in mutants [6]: hypersensitive; vir inducing activity (virB::lacZ β-galactosidase) [9]: little changed

Q: Which “vir inducing activity (virB::lacZ β-galactosidase)” value [9] does the source give for `COc1cc(C2CC2CO)ccc1O` (stereo not drawn) [cis-CP] here?
A: equivalent activity

Q: What does the source list for `COc1cc([C@@H]2C[C@H]2CO)ccc1O` (relative stereo) [(+)-trans-CP, trans-[3-(4-Hydroxy-3-methoxy-phenyl)-cyclopropyl]methanol]?
A: vir inducing activity / hypersensitivity in mutants [6]: all the inducing activity of the racemate; vir inducing activity (virB::lacZ β-galactosidase) [9]: virtually all the activity of the trans racemate; also recorded: active

Q: Which “vir inducing activity (virB::lacZ β-galactosidase)” value [9] does the source give for `COC(=O)/C=C/c1cc(OC)c2c(c1)C(C(=O)OC)C(c1ccc(O)c(OC)c1)O2` [(2R,3R)-(−)-trans-DDF, trans-dehydroferulate dimethylester, reference compound] here?
A: all the inducing activity of the racemic mixture

Q: What about the “vir inducing activity (virB::lacZ β-galactosidase)” value ([9]; listed as (−)-trans-DDF) of the same compound?
A: active

Q: For `COc1cc2c(cc1O)CCC2=O` [Z-indanone, 5-hydroxy-6-methoxy-1-indanone], which “vir inducing activity (virB::lacZ β-galactosidase)” value [9] is on record?
A: equivalent activity

Q: Which “vir inducing activity / hypersensitivity in mutants” value [6] does the source give for `COc1c(O)ccc2c1CCC2=O` [E-indanone, 5-hydroxy-4-methoxy-1-indanone] here?
A: hypersensitive

Q: And the “vir inducing activity (virB::lacZ β-galactosidase)” value [9]?
A: equivalent activity

— US20030188344A1 (priority 2000, published 2003)
